Experimental data: patent US4843077A, “Isoquinoline derivatives having renal vasodilating properties and/or cardiotonic properties and/or phosphodiesterase inhibiting properties” (Ortho Pharmaceutical Corporation, priority 1987, dated 1989)
pIC50: −log10 of the molar value. Where two headings read alike, the source gives them in different places.

Assays:
cardiac muscle = test: Acute in vivo cardiotonic activity in anesthetized dogs; set-up: species or system adult mongrel dogs; conditions: anesthetized dog, relative to control
Experimental: The acute in vivo cardiotonic activity of compounds prepared according to the present invention was determined according to a modification of the procedure described by Alousi et al., Circ. Res., 45, 666 (1979).
In particular, adult mongrel dogs were anesthetized with sodium pentobarbital and were artificially respired. Arterial pressure was monitored via a femoral artery, and the pulse pressure was used to trigger a cardiotachometer for heart rate. Left ventricular pressure was determined with a Millar catheter, and dP/dT (the change in ventricular pressure with time) was derived. Cardiac output was determined by measuring ascending aortic blood flow with an electromagnetic flow probe, and myocardial contractile foorce was measured with a Walton Brodie strain gauge sutured to the right ventricle. Lead II EKG was also recorded.
A standard dose (10 μg/kg/min) of dopamine was administered to assess myocardial responsiveness.
Compounds of the invention were administered by intravenous infusion and the effects on cardiovascular parameters were determined.
Dose related effects of the test compound on heart rate (HR), maximum change in left ventricular pressure with time (dP/dT), percent change in cardiac force (CF) and the change in mean arterial blood pressure (MABP) were compared to pretreatment control values and expressed as a percent change.

[1] = molecular target: phosphodiesterase fraction III; test: Inhibition of phosphodiesterase fraction III activity; format: biochemical; conditions: cyclic AMP substrate 0.01-1.0 micromolar, pH 7.4, fraction III enzyme from canine heart
renal vasculature = test: Renal vasodilating activity in anesthetized dogs; format: in vivo, adult mongrel dogs; conditions: Canis lupus familiaris
Experimental: The following procedure is a variation of the assay described in that report.
Adult mongrel dogs were anesthetized and surgically prepared for electromagnetic measurement of renal artery blood flow. A carotid artery was cannulated for measuring arterial blood pressure and drugs were administered intravenously or intraarterially (via the renal artery). Heart rate was monitored with a cardiotachometer. Renal vascular resistance was calcualted as the ratio of mean arterial blood pressure to renal artery blood flow. Dopamine was infused intravenously at 3 μg/kg/min for ten minutes (at an infusion rate of about 1 ml/min) to determine responsiveness of each dog to renal dopamine receptor stimulation. Cumulative dose-response data were obtained by infusing a compound of this invention at progressively increasing (usually three-fold) infusion rates, each dose being infused for five minutes. The maximum percent change from pre-drug control in renal artery blood flow (or in renal vascular resistance) was determined for each infusion dose.

[2] = total dose 1.875 mpk iv infusion
[3] = iv, read-out: RVR, percent change in renal vascular resistance
[4] = anesthetized dog, dose 1.2 mpk iv, relative to control, read-out: HR, percent change in heart rate
[5] = anesthetized dog, dose 1.2 mpk iv, relative to control, read-out: MABP, percent change in mean arterial blood pressure
[6] = anesthetized dog, dose 1.2 mpk iv, relative to control, read-out: RBF, percent change in renal blood flow
[7] = anesthetized dog, dose 6.2 mpk iv, relative to control, read-out: HR, percent change in heart rate
[8] = anesthetized dog, dose 6.2 mpk iv, relative to control, read-out: MABP, percent change in mean arterial blood pressure
[9] = anesthetized dog, dose 6.2 mpk iv, relative to control, read-out: RBF, percent change in renal blood flow
[10] = iv, read-out: HR, percent change in heart rate
[11] = anesthetized dog, dose 1.2 mpk iv, relative to control, read-out: RVR, percent change in renal vascular resistance
[12] = total dose 1.938 mpk iv infusion

Which results are given for `CCN(CC)CCNc1nc(C)c2cc(OC)c(OC)cc2c1[N+](=O)[O-]` [Cmpd 6]?
CF, percent change in cardiac force (cardiac muscle; [2]): 40 percent change; HR, percent change in heart rate (cardiac muscle; [2]): -6 percent change; MABP, percent change in mean arterial blood pressure (cardiac muscle; [2]): 4 percent change; dP/dt, maximum percent change in left ventricular pressure with time (cardiac muscle; [2]): 52 percent change

`CCN(CCN(C)C)c1nc(C)c2cc(OC)c(OC)cc2c1[N+](=O)[O-]` [Cmpd 16] was tested. Which pIC50 [1] did it give?
Its pIC50 is 3.52.

With `COc1cc2c(C)nc(N(C)C)c(N)c2cc1OC` [Cmpd 26, 4-Amino-6,7-dimethoxy-3-(N,N-dimethyl)amino-1-methylisoquinoline] as the compound, how does the pIC50 [1] read?
Its pIC50 is 4.85.

Which results are given for `C=CCNC(=O)Nc1c(N(C)C)nc(C)c2cc(OC)c(OC)cc12` [Cmpd 30]?
change in vivo at 1.2 mg/kg (renal vasculature; [3]): -9%; change in vivo at 1.2 mg/kg (renal vasculature; [4]): 3%; change in vivo at 1.2 mg/kg (renal vasculature; [5]): 1%; change in vivo at 1.2 mg/kg (renal vasculature; [6]): 12%; pIC50 [1]: 3.55

`CNc1nc(C)c2cc(OC)c(OC)cc2c1[N+](=O)[O-]` [Cmpd 2] was tested. Which pIC50 [1] did it give?
Its pIC50 is 3.58.

For `COc1cc2c(C)nc(Nc3ccccc3)c([N+](=O)[O-])c2cc1OC` [Cmpd 12], which change in vivo at 6.2 mg/kg (renal vasculature; [3]) is on record?
The change in vivo at 6.2 mg/kg was -32%.

What about the change in vivo at 6.2 mg/kg (renal vasculature; [7]) of the same compound?
Its change in vivo at 6.2 mg/kg is 2%.

What about the change in vivo at 6.2 mg/kg (renal vasculature; [8]) of the same compound?
Its change in vivo at 6.2 mg/kg is -3%.

What about the change in vivo at 6.2 mg/kg (renal vasculature; [9]) of the same compound?
The change in vivo at 6.2 mg/kg was 42%.

What about the pIC50 [1] of the same compound?
The pIC50 was 3.60.

For `CCCCNC(=O)Nc1c(Nc2ccccc2)nc(C)c2cc(OC)c(OC)cc12` [Cmpd 27], which change in vivo at 1.2 mg/kg (renal vasculature; [10]) is on record?
The change in vivo at 1.2 mg/kg was -6%.

What about the change in vivo at 1.2 mg/kg (renal vasculature; [5]) of the same compound?
Its change in vivo at 1.2 mg/kg is 8%.

And the change in vivo at 1.2 mg/kg (renal vasculature; [6])?
Its change in vivo at 1.2 mg/kg is 7%.

What about the change in vivo at 1.2 mg/kg (renal vasculature; [11]) of the same compound?
Its change in vivo at 1.2 mg/kg is 1%.

How did the change in vivo at 6.2 mg/kg (renal vasculature; [3]) turn out when `COc1cc2c(C)nc(NC3CCN(Cc4ccccc4)CC3)c([N+](=O)[O-])c2cc1OC` [Cmpd 11] was run?
The change in vivo at 6.2 mg/kg was -28%.

And the change in vivo at 6.2 mg/kg (renal vasculature; [7])?
Its change in vivo at 6.2 mg/kg is -16%.

What about the change in vivo at 6.2 mg/kg (renal vasculature; [8]) of the same compound?
The change in vivo at 6.2 mg/kg was -13%.

What about the change in vivo at 6.2 mg/kg (renal vasculature; [9]) of the same compound?
The change in vivo at 6.2 mg/kg was 28%.

What about the pIC50 [1] of the same compound?
Its pIC50 is 3.92.

`COc1cc2c(C)nc(NCc3ccccc3)c([N+](=O)[O-])c2cc1OC` [Cmpd 4] was tested. Which change in vivo at 6.2 mg/kg (renal vasculature; [3]) did it give?
The change in vivo at 6.2 mg/kg was -14%.

And the change in vivo at 6.2 mg/kg (renal vasculature; [7])?
The change in vivo at 6.2 mg/kg was -15%.

What about the change in vivo at 6.2 mg/kg (renal vasculature; [8]) of the same compound?
Its change in vivo at 6.2 mg/kg is -6%.

And the change in vivo at 6.2 mg/kg (renal vasculature; [9])?
Its change in vivo at 6.2 mg/kg is 9%.

For `COc1cc2c(C)nc(NCCN3CCN(c4ccccc4OC)CC3)c([N+](=O)[O-])c2cc1OC` [Cmpd 8], which change in vivo at 0.3 mg/kg (renal vasculature; [10]) is on record?
The change in vivo at 0.3 mg/kg was -6%.

And the change in vivo at 0.3 mg/kg (renal vasculature; anesthetized dog, dose 0.3 mpk iv, relative to control, read-out: MABP, percent change in mean arterial blood pressure)?
Its change in vivo at 0.3 mg/kg is -20%.

And the change in vivo at 0.3 mg/kg (renal vasculature; anesthetized dog, dose 0.3 mpk iv, relative to control, read-out: RBF, percent change in renal blood flow)?
The change in vivo at 0.3 mg/kg was 10%.

What about the change in vivo at 0.3 mg/kg (renal vasculature; anesthetized dog, dose 0.3 mpk iv, relative to control, read-out: RVR, percent change in renal vascular resistance) of the same compound?
Its change in vivo at 0.3 mg/kg is -27%.

What does the source list for `COc1cc2c(C)nc(N(C)C)c([N+](=O)[O-])c2cc1OC` [Cmpd 13, 6,7-Dimethoxy-1-methyl-3-(N,N-dimethyl)amino-4-nitroisoquinoline]?
change in vivo at 1.2 mg/kg (renal vasculature; [4]): 17%; change in vivo at 1.2 mg/kg (renal vasculature; [5]): 16%; change in vivo at 1.2 mg/kg (renal vasculature; [6]): 60%; change in vivo at 1.2 mg/kg (renal vasculature; [11]): -23%; pIC50 [1]: 5.00

What does the source list for `CCN(CC)c1nc(C)c2cc(OC)c(OC)cc2c1[N+](=O)[O-]` [Cmpd 15]?
change in vivo at 6.2 mg/kg (renal vasculature; [7]): 4%; change in vivo at 6.2 mg/kg (renal vasculature; [8]): 0%; change in vivo at 6.2 mg/kg (renal vasculature; [9]): 8%; change in vivo at 6.2 mg/kg (renal vasculature; anesthetized dog, dose 6.2 mpk iv, relative to control, read-out: RVR, percent change in renal vascular resistance): -8%

`COc1cc2c(C)nc(N(C)c3ccccc3)c([N+](=O)[O-])c2cc1OC` [Cmpd 21] was tested. Which pIC50 [1] did it give?
Its pIC50 is 3.66.

`CCCCNC(=O)Nc1c(N(C)C)nc(C)c2cc(OC)c(OC)cc12` [Cmpd 28] was tested. Which “CF, percent change in cardiac force” value (cardiac muscle; [2]) did it give?
The value was 20 percent change.

What about the “HR, percent change in heart rate” value (cardiac muscle; [2]) of the same compound?
Its value is 2 percent change.

And the “MABP, percent change in mean arterial blood pressure” value (cardiac muscle; [2])?
The value was 2 percent change.

And the “dP/dt, maximum percent change in left ventricular pressure with time” value (cardiac muscle; [2])?
Its value is 16 percent change.

What about the pIC50 [1] of the same compound?
Its pIC50 is 3.52.

With `COc1cc2c(C)nc(Nc3ccccc3)c(N)c2cc1OC` [Cmpd 25, 4-amino-6,7-dimethoxy-1-methyl-3-[(N-phenyl)amino]isoquinoline] as the compound, how does the pIC50 [1] read?
The pIC50 was 4.17.

With `CCN(C)c1nc(C)c2cc(OC)c(OC)cc2c1[N+](=O)[O-]` [Cmpd 14] as the compound, how does the “CF, percent change in cardiac force” value (cardiac muscle; [12]) read?
Its value is 21 percent change.

And the “HR, percent change in heart rate” value (cardiac muscle; [12])?
The value was 8 percent change.

What about the “MABP, percent change in mean arterial blood pressure” value (cardiac muscle; [12]) of the same compound?
Its value is 6 percent change.

What about the “dP/dt, maximum percent change in left ventricular pressure with time” value (cardiac muscle; [12]) of the same compound?
Its value is 20 percent change.

What about the pIC50 [1] of the same compound?
The pIC50 was 4.60.

What does the source list for `COc1cc2c(C)nc(N3CCN(c4ccccc4)CC3)c([N+](=O)[O-])c2cc1OC` [Cmpd 19]?
change in vivo at 6.2 mg/kg (renal vasculature; [3]): -18%; change in vivo at 6.2 mg/kg (renal vasculature; [7]): -5%; change in vivo at 6.2 mg/kg (renal vasculature; [8]): 6%; change in vivo at 6.2 mg/kg (renal vasculature; [9]): 30%; pIC50 [1]: 3.82

`CCCCNc1nc(C)c2cc(OC)c(OC)cc2c1[N+](=O)[O-]` [Cmpd 3, 3-(n-Butylamino)-6,7-dimethoxy-1-methyl-4-nitroisoquinoline] was tested. Which pIC50 [1] did it give?
Its pIC50 is 3.60.

What does the source list for `CCCCSc1nc(C)c2cc(OC)c(OC)cc2c1[N+](=O)[O-]` [Cmpd 23, 3-(n-Butylthio)-6,7-dimethoxy-1-methyl-4-nitroisoquinoline]?
change in vivo at 6.2 mg/kg (renal vasculature; iv, read-out: MABP, percent change in mean arterial blood pressure): -1%; change in vivo at 6.2 mg/kg (renal vasculature; [3]): -15%; change in vivo at 6.2 mg/kg (renal vasculature; [7]): 4%; change in vivo at 6.2 mg/kg (renal vasculature; [9]): 16%; pIC50 [1]: 3.55
